What all share (assay type): biochemical
The target of one assay is T1, EphB2 (Homo sapiens, UniProt P29323).
T1 construct: purchased Invitrogen (assay run by Invitrogen)
T1 sequence (P29323 19-1055): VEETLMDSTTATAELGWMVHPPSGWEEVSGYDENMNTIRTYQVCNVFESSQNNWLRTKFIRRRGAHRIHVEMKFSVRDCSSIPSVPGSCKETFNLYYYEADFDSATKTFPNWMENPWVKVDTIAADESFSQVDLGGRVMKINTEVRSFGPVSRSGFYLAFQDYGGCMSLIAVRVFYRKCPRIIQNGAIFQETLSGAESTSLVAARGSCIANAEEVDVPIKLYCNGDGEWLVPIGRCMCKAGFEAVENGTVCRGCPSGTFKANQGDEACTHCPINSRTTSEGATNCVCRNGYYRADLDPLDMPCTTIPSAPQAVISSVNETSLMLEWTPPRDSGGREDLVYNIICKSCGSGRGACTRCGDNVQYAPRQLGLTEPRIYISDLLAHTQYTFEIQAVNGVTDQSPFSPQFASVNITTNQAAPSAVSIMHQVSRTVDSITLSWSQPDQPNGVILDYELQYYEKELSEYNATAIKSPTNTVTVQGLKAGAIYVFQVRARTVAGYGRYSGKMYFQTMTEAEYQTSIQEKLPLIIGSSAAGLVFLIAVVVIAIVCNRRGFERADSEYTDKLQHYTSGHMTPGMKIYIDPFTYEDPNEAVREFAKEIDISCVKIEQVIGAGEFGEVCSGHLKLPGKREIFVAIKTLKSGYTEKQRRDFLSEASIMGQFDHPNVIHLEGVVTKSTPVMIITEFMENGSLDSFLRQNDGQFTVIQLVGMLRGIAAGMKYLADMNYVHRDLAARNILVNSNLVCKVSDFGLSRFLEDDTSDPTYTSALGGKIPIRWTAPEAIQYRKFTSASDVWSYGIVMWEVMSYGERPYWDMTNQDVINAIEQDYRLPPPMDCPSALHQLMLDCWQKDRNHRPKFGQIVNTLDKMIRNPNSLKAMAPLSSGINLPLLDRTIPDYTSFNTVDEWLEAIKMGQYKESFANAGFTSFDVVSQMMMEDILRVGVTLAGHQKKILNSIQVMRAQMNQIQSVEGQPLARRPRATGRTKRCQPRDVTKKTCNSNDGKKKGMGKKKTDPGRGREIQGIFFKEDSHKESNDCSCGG
Nature of the assay: Z'-Lyte FRET kinase assay (Invitrogen), EphB2. The following applies: read-out: IC50, activity toward kinase EphB2. The text has this:
The effect of potential modulators of kinase activity can be measured in a variety of different assays known in the art. For example, direct radiometric, indirect FRET or AlphaScreen assays may be used to assess the level of phosphorylation of a substrate in the presence of test compounds in order to determine the inhibitory affect of the compound on the kinase. Invitrogen (Carlsbad, Calif.) uses a FRET based assay for Btk, EGFR, EphB2, Flt3, lrak4, Kdr, MAP2K1, MAPKAPK2, PDGFRB, PKC theta, Stk6 and Yes. For these assays, compounds of the invention were screened by Invitrogen using Z′-Lyte™ kinase assay.
Briefly, the Invitrogen kinase assay involves use of a specific peptide substrate optimized for each kinase, containing a fluorophore at each end that make up the FRET pair. The peptide sensitivity to proteolytic cleavage depends on phosphorylation of the peptide. Non-phosphorylated peptide is cleaved by a protease while peptide phosphorylated by the kinase is not cleaved. Cleavage of the peptide disrupts the FRET between the donor (coumarin) and acceptor (fluorescein) fluorophores, resulting in an increase in the ratio of donor emission to acceptor emission. The emission ratio of coumarin to fluorescein is used to assess the reaction progress. The extent of phosphorylation is determined from the emission ratio, which is low when the kinase is active (phosphorylated peptide is not cleaved, FRET pair connected) or higher for inhibited kinase (non-phosphorylated peptide is cleaved, FRET pair separated). Thus, the assay involves a kinase reaction in the presence of varying concentrations of a given compound, a development reaction with site specific protease, and detection of the fluorescent emission ratio of coumarin and fluorscein. […] Reaction conditions for each kinase are determined to provide optimal reaction times, incubation temperature, kinase and ATP concentrations. Test samples are made up in 1× kinase buffer (50 mM HEPES pH 7.5, 50 mM MgCl2, 5 mM EGTA, 0.05% BRIJ-35) and compound at desired concentration prepared in DMSO such that the final DMSO is 1%. […] Typically, assay plates are prepared to 10 μl final volume per sample, adding 2.5 μl of compound at 4× the desired concentration in 4% DMSO (serial dilution of compound provides concentration curve), 5 μl of the desired kinase mixed with Z′-LYTE™ peptide substrate (2× in 2× kinase buffer, final peptide at 2 μM), and 2.5 μl of 4×ATP solution. All kinase except for MAP2K1 were at 10 μM ATP in the kinase reaction, while MAP2K1 was at 100 μM. Samples are mixed and the kinase reaction is incubated 1 hour at room temperature, after which 5 μl of development solution is added and mixed. After incubation for another 1 hour at room temperature, 5 μl of stop reagent is added to each sample and mixed. The fluorescence signals are measured to determine the emission ratio.

The target of another assay is T2, Ret (Homo sapiens, UniProt P07949).
T2 construct: P1378.pET-SF BI-PTP RET H661-R1012 HIS; made in house
T2 sequence (P07949 with tags, fused parts or gaps): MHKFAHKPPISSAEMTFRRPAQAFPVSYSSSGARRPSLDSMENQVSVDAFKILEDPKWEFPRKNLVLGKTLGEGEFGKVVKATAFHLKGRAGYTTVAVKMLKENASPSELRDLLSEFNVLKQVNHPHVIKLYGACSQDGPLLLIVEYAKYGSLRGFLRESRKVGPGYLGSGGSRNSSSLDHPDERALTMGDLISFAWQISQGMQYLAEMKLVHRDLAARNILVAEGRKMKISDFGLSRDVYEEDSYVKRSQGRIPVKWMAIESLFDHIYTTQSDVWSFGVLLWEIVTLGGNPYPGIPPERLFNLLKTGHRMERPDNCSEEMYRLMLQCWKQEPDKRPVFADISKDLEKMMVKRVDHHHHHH
Nature of the assay: AlphaScreen kinase assay, Ret. Particulars: read-out: IC50, activity toward kinase Ret.

The next assay concerns the target T3, Kdr (Homo sapiens, UniProt P35968).
T3 construct: purchased Invitrogen (assay run by Invitrogen)
As to the kind of experiment: Z'-Lyte FRET kinase assay (Invitrogen), Kdr. The following applies: read-out: IC50, activity toward kinase Kdr.

Another assay concerns the target Gsk3β (Homo sapiens, UniProt P49841). As to the kind of experiment: AlphaScreen kinase assay, Gsk3β. Particulars: read-out: IC50, activity toward kinase Gsk3β. The procedure, abridged:
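AlphaScreen, biotin-peptide substrate; streptavidin donor/anti-phospho acceptor beads; decreased emission = inhibition. Cpds 20 mM DMSO stock, 1:3 x 8 conc.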
A general note: Bead proximity is the source of the signal in Alpha formats.

The target in a further assay is T4, Yes (Homo sapiens, UniProt P07947).
T4 construct: purchased Invitrogen (Carlsbad, Calif.), screening service
T4 sequence (P07947 whole entry): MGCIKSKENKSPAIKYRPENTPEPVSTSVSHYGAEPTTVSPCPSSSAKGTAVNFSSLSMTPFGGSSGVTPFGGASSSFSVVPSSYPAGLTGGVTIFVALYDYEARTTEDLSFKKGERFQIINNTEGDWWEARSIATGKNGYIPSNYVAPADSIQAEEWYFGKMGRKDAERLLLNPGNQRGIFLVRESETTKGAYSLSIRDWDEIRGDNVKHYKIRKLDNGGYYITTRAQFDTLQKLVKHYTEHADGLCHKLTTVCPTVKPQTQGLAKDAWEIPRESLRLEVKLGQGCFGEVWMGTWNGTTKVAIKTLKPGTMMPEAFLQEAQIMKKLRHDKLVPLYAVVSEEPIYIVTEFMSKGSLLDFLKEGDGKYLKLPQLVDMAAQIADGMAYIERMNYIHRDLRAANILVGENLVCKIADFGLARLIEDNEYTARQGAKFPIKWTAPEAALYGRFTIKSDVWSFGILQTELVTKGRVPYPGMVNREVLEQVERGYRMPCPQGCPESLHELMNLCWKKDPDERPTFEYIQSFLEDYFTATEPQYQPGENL
Nature of the assay: Z'-Lyte FRET kinase assay (Invitrogen), Yes. Particulars: read-out: IC50, activity toward kinase Yes. In outline: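 Serially diluted compound (1% DMSO final) is mixed with kinase plus 2 μM peptide substrate in pH 7.5 HEPES buffer, then ATP is added to 10 μM. After 1 h at room temperature, site-specific protease is added for another hour, reactions are stopped and fluorescence ratio measured.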

For the next assay, the target named is T5, Btk (Homo sapiens, UniProt Q06187).
T5 construct: purchased Invitrogen (assay run by Invitrogen)
T5 sequence (Q06187 whole entry): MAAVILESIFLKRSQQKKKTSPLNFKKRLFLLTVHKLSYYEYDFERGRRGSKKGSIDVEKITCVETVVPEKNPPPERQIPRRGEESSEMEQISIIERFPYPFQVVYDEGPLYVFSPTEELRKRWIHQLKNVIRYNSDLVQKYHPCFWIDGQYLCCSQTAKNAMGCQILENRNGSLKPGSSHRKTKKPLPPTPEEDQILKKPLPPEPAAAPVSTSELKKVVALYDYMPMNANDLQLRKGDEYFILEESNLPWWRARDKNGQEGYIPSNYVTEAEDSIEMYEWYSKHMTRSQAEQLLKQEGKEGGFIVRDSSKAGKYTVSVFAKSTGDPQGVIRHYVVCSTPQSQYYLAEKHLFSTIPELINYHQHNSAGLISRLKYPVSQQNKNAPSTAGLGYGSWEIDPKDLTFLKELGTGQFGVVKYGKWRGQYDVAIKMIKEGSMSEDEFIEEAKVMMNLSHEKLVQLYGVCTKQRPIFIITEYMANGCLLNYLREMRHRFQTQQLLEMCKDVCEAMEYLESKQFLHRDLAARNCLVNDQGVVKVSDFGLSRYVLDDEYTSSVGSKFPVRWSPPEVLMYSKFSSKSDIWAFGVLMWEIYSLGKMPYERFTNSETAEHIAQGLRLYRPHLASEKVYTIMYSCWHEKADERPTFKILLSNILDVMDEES
Nature of the assay: Z'-Lyte FRET kinase assay (Invitrogen), Btk. Particulars: read-out: IC50, activity toward kinase Btk.

Another assay has as its target T6, B-Raf V600E (Homo sapiens, UniProt P15056, V600E).
T6 construct: P4254. pFastBacBD-CDC37 BRAF D437-K722-X, V600E; His6 with pFastBac HT leader (TEV site) (N); made in house; host or cells: Sf9 (baculovirus; chaperone CDC37 co-expressed)
Nature of the assay: AlphaScreen kinase assay, B-Raf V600E. Particulars: read-out: IC50, activity toward kinase B-Raf V600E.

In another assay the target is T7, MAP2K1 (Homo sapiens, UniProt Q02750).
T7 construct: purchased Invitrogen (assay run by Invitrogen)
T7 sequence (Q02750 whole entry): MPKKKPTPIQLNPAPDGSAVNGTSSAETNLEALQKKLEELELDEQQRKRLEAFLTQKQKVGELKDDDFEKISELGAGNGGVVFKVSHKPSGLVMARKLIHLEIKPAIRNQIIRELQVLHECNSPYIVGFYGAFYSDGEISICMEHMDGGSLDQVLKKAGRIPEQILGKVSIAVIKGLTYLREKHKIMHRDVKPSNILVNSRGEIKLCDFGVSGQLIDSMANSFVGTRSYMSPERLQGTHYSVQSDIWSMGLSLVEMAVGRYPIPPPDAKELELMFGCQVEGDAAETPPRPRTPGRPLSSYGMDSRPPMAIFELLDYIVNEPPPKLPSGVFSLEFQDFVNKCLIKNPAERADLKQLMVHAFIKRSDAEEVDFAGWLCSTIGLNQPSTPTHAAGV
As to the kind of experiment: Z'-Lyte FRET kinase assay (Invitrogen), MAP2K1. Particulars: read-out: IC50, activity toward kinase MAP2K1.

A further assay addresses T8, Stk6 (Homo sapiens, UniProt O14965).
T8 construct: purchased Invitrogen (Carlsbad, Calif.), screening service
T8 sequence (O14965 1-403): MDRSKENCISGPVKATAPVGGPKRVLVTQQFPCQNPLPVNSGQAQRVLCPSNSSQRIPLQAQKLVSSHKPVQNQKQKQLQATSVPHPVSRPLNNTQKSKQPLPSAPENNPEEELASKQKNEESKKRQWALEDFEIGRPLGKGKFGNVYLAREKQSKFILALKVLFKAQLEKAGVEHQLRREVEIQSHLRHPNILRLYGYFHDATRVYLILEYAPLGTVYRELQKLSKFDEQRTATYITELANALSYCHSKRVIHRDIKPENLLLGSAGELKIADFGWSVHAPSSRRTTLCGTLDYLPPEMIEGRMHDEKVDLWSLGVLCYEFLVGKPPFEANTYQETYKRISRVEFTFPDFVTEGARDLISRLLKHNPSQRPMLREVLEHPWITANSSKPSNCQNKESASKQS
Nature of the assay: Z'-Lyte FRET kinase assay (Invitrogen), Stk6. Particulars: read-out: IC50, activity toward kinase Stk6.

For the next assay, the target named is T9, Kit (Homo sapiens, UniProt P10721).
T9 construct: P1332.N6 BI PTP KIT M552-K948-X COD; His6 (N); made in house; host or cells: E. coli (PTP1B co-expressed)
T9 sequence (P10721 with tags, fused parts or gaps): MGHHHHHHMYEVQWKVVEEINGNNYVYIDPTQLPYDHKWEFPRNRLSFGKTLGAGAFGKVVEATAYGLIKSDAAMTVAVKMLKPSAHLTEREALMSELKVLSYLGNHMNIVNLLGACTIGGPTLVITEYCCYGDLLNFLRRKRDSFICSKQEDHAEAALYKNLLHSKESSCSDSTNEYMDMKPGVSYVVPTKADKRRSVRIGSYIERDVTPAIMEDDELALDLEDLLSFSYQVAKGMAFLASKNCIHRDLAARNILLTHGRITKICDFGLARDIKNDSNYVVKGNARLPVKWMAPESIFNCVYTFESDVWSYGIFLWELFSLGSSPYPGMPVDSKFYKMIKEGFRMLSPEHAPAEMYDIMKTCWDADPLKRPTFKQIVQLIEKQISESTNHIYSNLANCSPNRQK
As to the kind of experiment: AlphaScreen kinase assay, Kit. The following applies: read-out: IC50, activity toward kinase Kit.

In a further assay the target is T10, IKK beta (Homo sapiens, UniProt O14920).
T10 sequence (O14920 1-756): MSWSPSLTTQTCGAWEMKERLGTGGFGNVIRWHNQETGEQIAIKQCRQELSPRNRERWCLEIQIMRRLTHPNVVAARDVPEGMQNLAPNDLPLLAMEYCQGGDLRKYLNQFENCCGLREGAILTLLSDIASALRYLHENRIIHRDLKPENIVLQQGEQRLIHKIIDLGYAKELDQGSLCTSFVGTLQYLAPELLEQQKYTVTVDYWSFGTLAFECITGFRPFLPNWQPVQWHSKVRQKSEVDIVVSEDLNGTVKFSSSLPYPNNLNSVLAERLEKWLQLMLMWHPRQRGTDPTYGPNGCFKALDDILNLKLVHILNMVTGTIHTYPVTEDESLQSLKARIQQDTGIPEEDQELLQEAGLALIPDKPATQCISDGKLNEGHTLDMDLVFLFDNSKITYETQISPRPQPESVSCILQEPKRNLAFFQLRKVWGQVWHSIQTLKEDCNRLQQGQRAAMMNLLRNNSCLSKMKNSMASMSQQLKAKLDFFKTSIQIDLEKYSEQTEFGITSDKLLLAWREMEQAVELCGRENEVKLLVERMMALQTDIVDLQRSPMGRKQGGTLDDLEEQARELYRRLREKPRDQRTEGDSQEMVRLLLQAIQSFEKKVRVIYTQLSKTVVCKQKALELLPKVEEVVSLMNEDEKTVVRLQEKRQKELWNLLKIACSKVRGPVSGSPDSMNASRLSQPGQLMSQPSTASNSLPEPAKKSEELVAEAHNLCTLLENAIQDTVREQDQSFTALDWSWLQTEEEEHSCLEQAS
Nature of the assay: AlphaScreen kinase assay, IKK beta. Particulars: read-out: IC50, activity toward kinase IKK beta.

Another assay addresses T11, Flt1 (Homo sapiens, UniProt P17948).
T11 construct: P1826.pETN6 BI-PTP FLT1 M799-D1165-X WT; His6 (N); made in house; host or cells: E. coli (PTP1B co-expressed)
T11 sequence (P17948 with tags, fused parts or gaps): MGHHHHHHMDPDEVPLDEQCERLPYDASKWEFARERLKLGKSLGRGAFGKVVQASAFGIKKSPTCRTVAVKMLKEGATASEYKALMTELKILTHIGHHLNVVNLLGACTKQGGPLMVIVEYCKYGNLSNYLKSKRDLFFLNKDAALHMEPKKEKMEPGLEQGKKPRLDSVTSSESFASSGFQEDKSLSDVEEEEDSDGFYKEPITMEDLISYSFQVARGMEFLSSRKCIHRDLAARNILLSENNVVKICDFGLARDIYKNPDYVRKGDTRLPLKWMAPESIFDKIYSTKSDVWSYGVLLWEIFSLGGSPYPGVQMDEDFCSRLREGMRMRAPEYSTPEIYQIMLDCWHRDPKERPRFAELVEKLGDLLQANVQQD
As to the kind of experiment: AlphaScreen kinase assay, Flt1. The following applies: read-out: IC50, activity toward kinase Flt1.

The results in this text go back to US8415469B2, “Compounds and methods for kinase modulation, and indications therefor” (Plexxikon Inc., priority 2005, dated 2013).

Molecules are shown by their SMILES.

T3 sequence (P35968 20-1356): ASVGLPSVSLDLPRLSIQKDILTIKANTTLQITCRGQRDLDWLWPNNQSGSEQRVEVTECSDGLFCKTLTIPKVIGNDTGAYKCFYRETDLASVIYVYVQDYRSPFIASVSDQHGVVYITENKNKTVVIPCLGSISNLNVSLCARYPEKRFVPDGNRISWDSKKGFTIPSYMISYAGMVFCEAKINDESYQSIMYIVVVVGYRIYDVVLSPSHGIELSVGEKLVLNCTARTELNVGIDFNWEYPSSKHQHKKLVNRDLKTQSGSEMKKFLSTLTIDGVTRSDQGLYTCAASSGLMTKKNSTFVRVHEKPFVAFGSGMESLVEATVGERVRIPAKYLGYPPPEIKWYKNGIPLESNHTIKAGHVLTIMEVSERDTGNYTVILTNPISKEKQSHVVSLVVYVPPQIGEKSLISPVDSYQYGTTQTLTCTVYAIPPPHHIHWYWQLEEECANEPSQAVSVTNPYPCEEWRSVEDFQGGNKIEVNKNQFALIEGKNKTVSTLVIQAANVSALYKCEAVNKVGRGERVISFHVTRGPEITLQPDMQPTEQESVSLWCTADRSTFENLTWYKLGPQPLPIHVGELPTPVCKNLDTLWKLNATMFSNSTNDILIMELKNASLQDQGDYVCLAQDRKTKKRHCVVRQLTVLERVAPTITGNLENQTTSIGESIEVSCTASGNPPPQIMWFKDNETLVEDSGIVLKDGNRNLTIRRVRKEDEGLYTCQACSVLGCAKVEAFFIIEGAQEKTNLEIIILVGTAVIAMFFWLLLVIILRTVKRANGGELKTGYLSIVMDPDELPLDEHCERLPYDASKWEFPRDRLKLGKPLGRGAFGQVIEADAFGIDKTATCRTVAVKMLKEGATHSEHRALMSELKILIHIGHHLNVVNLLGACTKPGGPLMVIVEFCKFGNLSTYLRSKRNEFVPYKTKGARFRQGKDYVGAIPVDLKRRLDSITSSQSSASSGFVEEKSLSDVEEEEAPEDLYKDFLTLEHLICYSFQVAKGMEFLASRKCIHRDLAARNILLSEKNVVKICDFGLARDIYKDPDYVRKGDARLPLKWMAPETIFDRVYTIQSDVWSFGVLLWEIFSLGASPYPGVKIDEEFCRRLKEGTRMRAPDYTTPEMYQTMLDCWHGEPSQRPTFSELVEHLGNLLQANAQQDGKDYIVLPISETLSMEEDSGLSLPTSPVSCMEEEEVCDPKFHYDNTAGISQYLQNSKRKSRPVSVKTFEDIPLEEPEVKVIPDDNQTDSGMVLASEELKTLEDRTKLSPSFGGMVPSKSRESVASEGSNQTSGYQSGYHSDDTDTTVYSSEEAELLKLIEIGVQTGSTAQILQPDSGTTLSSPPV
Sequence of Gsk3β (P49841 whole entry): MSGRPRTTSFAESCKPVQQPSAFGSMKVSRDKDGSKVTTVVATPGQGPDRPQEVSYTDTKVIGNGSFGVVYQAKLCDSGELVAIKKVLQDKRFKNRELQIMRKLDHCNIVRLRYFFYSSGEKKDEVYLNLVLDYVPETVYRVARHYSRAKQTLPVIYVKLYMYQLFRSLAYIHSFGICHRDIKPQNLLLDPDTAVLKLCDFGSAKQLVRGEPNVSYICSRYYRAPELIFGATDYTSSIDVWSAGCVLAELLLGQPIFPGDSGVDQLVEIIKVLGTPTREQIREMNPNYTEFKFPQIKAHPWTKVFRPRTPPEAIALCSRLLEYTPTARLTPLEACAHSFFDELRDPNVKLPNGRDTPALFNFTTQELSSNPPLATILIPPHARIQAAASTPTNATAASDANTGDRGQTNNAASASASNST
T6 sequence (P15056 with tags, fused parts or gaps V600E): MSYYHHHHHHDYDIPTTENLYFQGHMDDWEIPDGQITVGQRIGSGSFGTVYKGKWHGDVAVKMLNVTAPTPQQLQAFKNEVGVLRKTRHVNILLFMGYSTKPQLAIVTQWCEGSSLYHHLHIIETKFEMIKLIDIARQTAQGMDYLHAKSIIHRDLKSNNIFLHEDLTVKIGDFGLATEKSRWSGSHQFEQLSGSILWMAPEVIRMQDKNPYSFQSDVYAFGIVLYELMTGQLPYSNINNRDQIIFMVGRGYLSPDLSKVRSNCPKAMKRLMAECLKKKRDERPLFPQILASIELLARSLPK
Description for Stk6: For example, direct radiometric, indirect FRET or AlphaScreen assays may be used to assess the level of phosphorylation of a substrate in the presence of test compounds in order to determine the inhibitory affect of the compound on the kinase. […] For these assays, compounds of the invention were screened by Invitrogen using Z′-Lyte™ kinase assay.
Briefly, the Invitrogen kinase assay involves use of a specific peptide substrate optimized for each kinase, containing a fluorophore at each end that make up the FRET pair. The peptide sensitivity to proteolytic cleavage depends on phosphorylation of the peptide. Non-phosphorylated peptide is cleaved by a protease while peptide phosphorylated by the kinase is not cleaved. Cleavage of the peptide disrupts the FRET between the donor (coumarin) and acceptor (fluorescein) fluorophores, resulting in an increase in the ratio of donor emission to acceptor emission. The emission ratio of coumarin to fluorescein is used to assess the reaction progress. […] Thus, the assay involves a kinase reaction in the presence of varying concentrations of a given compound, a development reaction with site specific protease, and detection of the fluorescent emission ratio of coumarin and fluorscein. […] Reaction conditions for each kinase are determined to provide optimal reaction times, incubation temperature, kinase and ATP concentrations. Test samples are made up in 1× kinase buffer (50 mM HEPES pH 7.5, 50 mM MgCl2, 5 mM EGTA, 0.05% BRIJ-35) and compound at desired concentration prepared in DMSO such that the final DMSO is 1%. […] All kinase except for MAP2K1 were at 10 μM ATP in the kinase reaction, while MAP2K1 was at 100 μM. Samples are mixed and the kinase reaction is incubated 1 hour at room temperature, after which 5 μl of development solution is added and mixed. After incubation for another 1 hour at room temperature, 5 μl of stop reagent is added to each sample and mixed. The fluorescence signals are measured to determine the emission ratio.

As usually defined, the IC50 is the concentration at which inhibition is half-maximal. With `NC(=O)c1ccc(-c2ccnc3[nH]cc(C(=O)c4cccc(Cl)c4Cl)c23)cc1` [Compound P-0053], the IC50 on EphB2, at Ret, on Kdr, on Gsk3β, at Yes and on Btk was no more than 10 µM throughout. Besides, the IC50 at B-Raf V600E is no more than 10 µM.
Regarding `O=C(CCBr)c1c[nH]c2ncccc12` [Compound P-0081], the IC50 on MAP2K1, on Kdr, on Gsk3β, at Yes, at Btk and on Stk6 was no more than 10 µM throughout.
For `CSc1cccc(-c2c[nH]c3ncccc23)c1` [Compound P-0315], the IC50 at Kit, at IKK beta and at Flt1 was no more than 10 µM throughout.
Turning to `Cc1cc(-c2c(C)[nH]c3ncccc23)ccc1F` [Compound P-0376], the IC50 at Kdr and at IKK beta was no more than 10 µM in each case.
Take `C[C@H]1CN(c2ccc(-c3ccnc4[nH]ccc34)cn2)CCN1` [Compound P-0410]: on IKK beta, the IC50 was no more than 10 µM.
`c1cc(-c2ccsc2)c2cc[nH]c2n1` [Compound P-0629]: the IC50 at IKK beta and at Flt1 was no more than 10 µM in each case.
`COc1ccc(-c2c[nH]c3ncccc23)cc1F` [Compound P-0690]: the IC50 at Kit and at IKK beta was no more than 10 µM in each case.
With `c1ccc2oc(-c3ccnc4[nH]ccc34)cc2c1` [Compound P-0790], at IKK beta, the IC50 was no more than 10 µM.
On to `COc1ccc(C#Cc2ccnc3[nH]ccc23)cc1` [Compound P-0920], for which the IC50 on IKK beta was no more than 10 µM.
For the molecule `CCS(=O)(=O)c1ccc(-c2c(C)[nH]c3ncccc23)cc1` [Compound P-1223], the IC50 on IKK beta is no more than 10 µM.
